No end group written: not given here.
Key:
[1] = tested on: intrinsic cardiac neurons; conditions: direct application; cited from earlier work
right atrial neurons = experiment: Ventricular unipolar electrograms (ST segment) with ANG II administered to right atrial neurons, ameroid constrictor chronic ischemia; type: in vivo; conditions: ANG II 40 μg/min
Protocol: Under basal conditions, electrograms display slight ST segment displacement (panel B). Transient rapid ventricular pacing (240/min for 1 min), used to increase myocardial O2 demand, precipitates ischemic episodes. In the first beats following rapid pacing, ST segment displacement is inhomogeneously augmented in the LCx territory. Marked ST segment depression (−2 to −6 mV) occurs in some areas, whereas ST elevation (+2 to +15 mV) develops in others (panel C). […] Note that the ST changes, induced by ANG II, occurred at the apical margin of the plaque electrode, i.e., at the periphery of the LCx territory (Panel D). In contrast, the changes induced by transient rapid pacing occurred at a more central location in the LCx territory (panel C).
Note that the ST changes occurred at the apical margin of the plaque electrode (panel B). Thus, the ST segment changes are caused by direct or indirect activation of ganglionated plexus neurons that project efferent axons to the specific ventricular areas in which the changes occurred. […]
Dorsal column activation stabilizes ischemic myocardial electrical dysfunction. […] Four weeks later, under general anesthesia multiple ventricular unipolar electrograms were recorded in the normal and ischemic left ventricle during basal states and when ANG II (40 μg/min; 1 minute) was administered to right atrial neurons before and after DCA. […]

[2] = tested on: right atrial ganglionated plexus neurons; experiment: Activity of right atrial ganglionated plexus neuron populations during epicardial chemical stimuli; type: in vivo; conditions: ventricular sensory inputs
Source text: Arrow indicates application of veratridine to the epicardium of the left ventricle. At baseline, note the cycling of activity with a periodicity of 20 seconds. In the unstressed condition, this bursting is usually associated with increased coordination of activity between the two populations of neurons (see bottom trace).
Sub-populations of right atrial neurons that receive afferent inputs from sensory neurites in both ventricles are responsive to local mechanical stimuli and the nitric oxide donor nitroprusside. Neurons in at least one ganglionated plexus locus were activated by epicardial application of veratridine, bradykinin, the β1-adrenoceptor agonist prenaterol or the excitatory amino acid glutamate. […] These periods of coupled activity occurred every 30-50 second during basal states, as well as when neuronal activity was enhanced by chemical activation of their ventricular sensory inputs. It has been observed that neurons throughout one intrinsic cardiac ganglionated plexus receive inputs from mechano- and chemo-sensory neurites located in both ventricles. That such neurons respond to multiple chemical stimuli, including those liberated from adjacent adrenergic efferent nerve terminals, indicates the complexity of the integrative processing of information that occurs within the intrinsic cardiac nervous system.
Intraganglionic interactions within the intrinsic cardiac nervous system depend in large part on common shared afferent inputs and/or interconnections mediated via local circuit neurons. In order to evaluate these interactions, separate populations of neurons were recorded in the ventral right atrial ganglionated plexus (RAGP) in basal states and during discrete mechanical and chemical stimuli of ventricular neurites. In basal states, the coherence of activity generated by the two populations of RAGP neurons fluctuated with a periodicity of 30-50 s and with an average peak coherence of 0.88±0.03. Coherence was increased in conjunction with the enhanced neuronal activity evoked during exposure of ventricular sensory inputs to mechanical and chemical (nitroprusside, veratridine, bradykinin, adrenergic agonists or glutamate) stimuli.

[3] = tested on: right atrial ganglionated plexus; experiment: ISF, aorta and coronary sinus catecholamines (microdialysis) during ANG II infusion into blood supply of the RAGP; type: in vivo, dog
Protocol: FIGS. 8A-8C show ISF, aorta and coronary sinus norepinephrine (NE) and epinephrine (EPI) levels in response to stellate stimulation (4 Hz), angiotensin II (ANG II) infusion (100 μM, 1 ml/min) into the blood supply for the Right Atrial Ganglionated Plexus (RAGP) and Dorsal Cord Activation (DCA, 50 Hz, 200 μsec, 90% motor threshold). ISF fluids were sampled using the microdialysis techniques summarized in Aim 3.
LV dP/dt correlated with ISF NE release. However, NE spillover into the coronary sinus occurred only during sympathetic efferent neuronal stimulation (FIG. 8C). […] This differential release of catecholamines from cardiac nerves occurred in spite of a 40-fold higher NE compared to EPI content in the dog LV myocardium (237±33 vs. 6.4±1.0 ng/g). […] Dorsal cord activation (FIG. 8B) evoked a release of EPI into the ISF equivalent to stellate stimulation, but with only a modest increase in ISF NE.

T3 neurons = experiment: T3 neuron activity with intrapericardial bradykinin and glutamate pledget on C1-C2 segments; type: in vivo, rats
Source text: FIGS. 19A-19F show responses of T3 cell to chemical stimulation of glutamate before and after rostral C1 spinal transection. The responses were evoked by intrapericardial injections of bradykinin (BK). Saline was used as the control. Pledgets of glutamate placed on the C1-C2 dorsal spinal cord (B) decreased the discharge rate of the cell for the three minute period it was applied. The background activity recovered after glutamate was removed. […] The presence of glutamate attenuated this response (E). The increased rate of discharge to BK injections was again observed when glutamate was removed (F). In each panel, action potentials were recorded on a rate histogram.
Originally, it was assumed that supraspinal pathways are necessary for descending inhibitory effects of visceral afferents on sensory neurons. […] Thus, it appears that the upper cervical segments play an important role in the hierarchy that controls the efferent outflow to the intrathoracic and intrinsic cardiac nervous system. […]
Descending modulation of thoracic cardiac nociceptive transmission by upper cervical spinal neurons. […] Methods: Extracellular potentials of single T3 neurons were recorded in pentobarbital anesthetized male rats. […]

[4] = tested on: canine intrinsic cardiac neurons; experiment: Intracellular recording of canine intrinsic cardiac neurons in vitro, ACh pulse with or without hexamethonium; type: cell-based; conditions: hexamethonium 100 μM for 5 min in perfusate
Protocol: The horizontal bar under the traces indicates application of a 10 ms pulse of ACh (1 mM) from the tip of a pipette placed near the ganglion. A, CONTROL. […] DCX. […] During the repolarization phase, the membrane potential began to oscillate with APs being discharged on oscillatory peaks. […] DCX. […] The bursting of activity is reflective of the enhanced muscarinic receptor-mediated responses of these neurons.
Intrinsic cardiac neurons remain responsive to cholinergic synaptic inputs. The cholinergic receptor systems are differentially affected by disruption of nerve inputs to the ICN, with muscarinic responsiveness being enhanced (FIG. 9). Non-cholinergic neurotransmitters can modulate the activity of these neurons. FIG. 10 illustrates the interaction between acetylcholine and the peptide, substance P.

intracardiac neuron = experiment: Inhibition of ACh-evoked responses by substance P, intracellular recording; type: cell-based; conditions: bath application of 10 μM substance P; 28 ms puffs of ACh 10 mM
Protocol: Local application of ACh evoked action potentials. These ACh evoked potentials were blocked during bath application of 10 μM substance P (see horizontal bar).

[5] = tested on: intrinsic cardiac neurons; experiment: Activity generated by right atrial (intrinsic cardiac) neurons recorded in situ in anesthetized dogs; type: in vivo, dog; conditions: for enhancement of intrinsic cardiac neuronal activity: epicardial veratridine 7.5 μM
[6] = tested on: canine nodose ganglion afferent neuron; experiment: Nodose ganglion afferent neuron activity after epicardial CPA; type: in vivo; conditions: CPA via 1 cm×1 cm pledget on ventral left ventricular epicardium
Protocol: Panel B was obtained 1 minute after terminating CPA application.

Compound: NC[C@H](O)c1ccc(O)c(O)c1 [norepinephrine]
- identified intrinsic cardiac neurons whose properties are modified [1]: about 25%

Compound: angiotensin II (DRVYIHPF; Angiotensin-2; UniProt P01019 25-32, looked up) [ANG II]
- regional ST segment changes (right atrial neurons; ischemic ventricle, 1 minute): increased the area and magnitude
- electrical behavior (right atrial neurons; normal myocardium): minimal changes
- neuronal response to epicardial application [2]: inconsistent neuronal responses
- NE concentration in the cardiac interstitial fluid (ISF) ([3]; ANG II 100 μM, 1 ml/min into RAGP blood supply, anesthetized dog): to the same extent as achieved during electrical stimulation of the stellate ganglia
- EPI spillover into the coronary sinus ([3]; ANG II stimulation): Neither stellate nor ANG II stimulation evoked EPI spillover

Compound: N[C@@H](CCC(=O)O)C(=O)O [glutamate]
- neuronal response to epicardial application [2]: activated
- spontaneous activity of T3 neurons and excitatory inputs from cardiac sensory neurons (T3 neurons; after transection at the rostral C1 spinal cord): still reduced
- T3 neurons in which spontaneous activity and/or excitatory responses to intrapericardial bradykinin were inhibited (T3 neurons; glutamate pledget 1 M, 1-3 min, on C1-C2): 77%

Compound: C[N+](C)(C)CCCCCC[N+](C)(C)C [Hexamethonium]
- ACh-induced depolarization ([4]; CONTROL neuron): reduced the amplitude of ACh-induced depolarization relative to the control state; no APs were generated
- ACh-induced depolarization ([4]; DCX neuron): reduced the amplitude of ACh-induced depolarization; AP discharge was facilitated

Compound: substance P (RPKPQQFFGLM-NH2; ends and bridges not checked; UniProt P20366 58-68, looked up)
- ACh evoked potentials (intracardiac neuron): blocked

Compound: CC(C)NC[C@H](O)COc1ccc(O)cc1 [prenaterol]
- neuronal response to epicardial application [2]: activated

Compound: CC(C)(C)NCC(O)c1cc(O)cc(O)c1 (centres unmarked) [terbutaline]
- neuronal response to epicardial application [2]: inconsistent neuronal responses

Compound: nitroprusside
- neuronal response to epicardial application [2]: responsive

Compound: OC[C@@H](O)[C@H]1O[C@@H]2O[C@H](C(Cl)(Cl)Cl)O[C@@H]2[C@H]1O [alpha chloralose]
- effect of each bolus on neuronal activity ([5]; dog, in vivo, iv): suppressed neuronal activity for a few minutes

Compound: OC[C@H]1O[C@@H](n2cnc3c(NC4CCCC4)ncnc32)[C@H](O)[C@@H]1O [CPA]
- activity generated by nodose ganglion afferent neuron [6]: enhancement of the activity

Compound: COc1ccc(C(=O)O[C@H]2CC[C@@]3(C)[C@@H]4CC[C@H]5[C@]6(O)C[C@H](O)[C@@]7(O)[C@@H](CN8C[C@@H](C)CC[C@H]8[C@@]7(C)O)[C@]6(O)C[C@@]53O[C@]24O)cc1OC [veratridine]
- intrinsic cardiac neuronal activity with veratridine ([5]; after application of SCS, four animals, from 11.8±2.5): 16.5±4.6 impulses/min
- intrinsic cardiac neuronal activity with veratridine ([5]; after completing the protocols, all 10 dogs, from 25.6±5.7): 40.6±12.5 impulses/min
- intrinsic cardiac neuronal activity with veratridine ([5]; before application of SCS, four animals): 40.5±26.7
- enhancement of intrinsic cardiac neuronal activity ([5]; after application of SCS, four animals, no significant difference): 39%
- enhancement of intrinsic cardiac neuronal activity ([5]; before application of SCS, four animals, P<0.05): 124%
- increase of intrinsic cardiac neuronal activity ([5]; epicardial veratridine, after completing the protocols (following SCS and regional ventricular ischaemia), all 10 dogs, P<0.05): 58%
